# Test results taken from patent publication US20120027816A1, “HIGHLY PURE ELETRIPTAN OR A PHARMACEUTICALLY ACCEPTABLE SALT THEREOF SUBSTANTIALLY FREE OF ELETRIPTAN N-OXIDE IMPURITY” (ACTAVIS GROUP PTC EHF, priority 2009, published 2012).
# Where a name gives a salt, the structure may show the parent alone.
# Experiment: Particle Size Distribution by laser diffraction (Malvern Master Sizer 2000)
# Assay type: physicochemical
# Conditions: eletriptan hydrobromide obtained by the Example 4 procedure, unmilled, cumulative volume size distribution
# Method: As used herein, “Particle Size Distribution (PSD)” means the cumulative volume size distribution of equivalent spherical diameters as determined by laser diffraction in Malvern Master Sizer 2000 equipment or its equivalent using a particle size method containing Tegiloxan medium with sonication time of 10 seconds and stirrer speed of 2500 rpm. “Mean particle size distribution, i.e., (D50)” correspondingly, means the median of said particle size distribution. The important characteristics of the PSD are the (D90), which is the size, in microns, below which 90% of the particles by volume are found, and the (D50), which is the size, in microns, below which 50% of the particles by volume are found. Thus, a D90 or d(0.9) of less than 300 microns means that 90 volume-percent of the particles in a composition have a diameter less than 300 microns.
Particle Size Distribution d(0.1) [microns],Particle Size Distribution d(0.5) [microns],Particle Size Distribution d(0.9) [microns],SMILES
12.07,27.69,53.92,"CN1CCC[C@@H]1Cc1c[nH]c2ccc(CCS(=O)(=O)c3ccccc3)cc12 [Example 4A, eletriptan hydrobromide]"
9.99,20.85,42.83,"CN1CCC[C@@H]1Cc1c[nH]c2ccc(CCS(=O)(=O)c3ccccc3)cc12 [Example 4B, eletriptan hydrobromide]"
13.58,27.25,50.91,"CN1CCC[C@@H]1Cc1c[nH]c2ccc(CCS(=O)(=O)c3ccccc3)cc12 [Example 4C, eletriptan hydrobromide]"
